Results: patent US20090028920A1, “UROLOGICAL DEVICES INCORPORATING COLLAGEN INHIBITORS” (Wake Forest University Health Sciences, priority 2006, published 2009)

Assays:
[1] = Drug release study of coated stents in PBS (UV spectroscopy at 243 nm); format: physicochemical; details: approx. 3 cm coated silicone stents, room temperature, 24-hour intervals
Method: Drug release studies were then performed to determine the amount of halofuginone released by the coated stents, and the timing of drug release. Stents approximately 3 cm in length were coated with halofuginone using our proprietary technique. These stents were then placed in PBS solution at room temperature for 24-hour intervals. After each 24-hour interval, the stents were placed in a new PBS solution, and the previous solution was analyzed for halofuginone concentration using UV spectroscopy (absorption at 243 nm). This process was continued daily until the amount of halofuginone in the PBS dropped to immeasurable levels.

ureter and urethra = details: orally administered and locally injected; cited from earlier work
[2] = oral doses of up to 3.5 mg/day; cited from earlier work
[3] = rat, in vivo
Method: HF Analysis in Local Tissues and Serum (in Rat): The tissue specimens were morcellated, incubated for 24 hours in 40 mL of PBS, centrifuged, and a sample was taken for HF concentration analysis via spectrophotometry. Blood was also drawn (1 mL) from the heart post-mortem, added to 5 mL of PBS, centrifuged, and the serum analyzed for HF concentration via spectrophotometry.

SMILES: O=C(CC1NCCCC1O)Cn1cnc2cc(Br)c(Cl)cc2c1=O (centres unmarked) [halofuginone, 7-bromo-6-chloro-3-[3-(3-hydroxy-2-piperidinyl)-2-oxopropyl]-4(3H)]
- duration of sustained release of halofuginone from the stents [1]: approximately 4 days
- release profile [1]: large burst release the first 24 hours
- collagen deposition and stricture formation (ureter and urethra): prevent collagen deposition and stricture formation
- tolerability [2]: minimal ill effects
- difference between HF levels in serum vs penile tissue [3]: almost a ten-fold difference
